Assay results published in publication PMC12668308, “A Novel Antimalarial Agent that Inhibits Protein Synthesis in Plasmodium falciparum” (Angewandte Chemie (International Ed. in English), 2025).
Like-named read-outs stand apart in the source and are kept apart here.

How the values were obtained:
Dd2b2^WT = assay: [3H]-hypoxanthine incorporation assay; assay type: cell-based, Plasmodium falciparum; conditions: Plasmodium falciparum, 72 h, read-out: Parent (Dd2b2^WT) IC50
Description: (§1) P. falciparum asexual blood stage parasites were cultured in human red blood cells (RBC, Blutspende SRK, Zurich) at a hematocrit of 5% in RPMI 1640 medium. The RPMI 1640 medium (ThermoFisher Scientific #51800−043) was supplemented with the following: 24 mM NaHCO3 (pH 7.3, Sigma-Aldrich #31437−500G-R), 25 mM Hepes (Sigma-Aldrich #H4034−500G), 0.36 mM hypoxanthine (Sigma-Aldrich # H9377−25G), 100 µg mL^-1 neomycin (Sigma-Aldrich #N6386−100G) and 0.5% Albumax II (Thermo Fisher #11021−045). Additionally, 2 mM choline chloride (279 mg/L, Sigma-Aldrich #C7527−100G) was added to the culture to block the induction of sexual commitment as described. ^[31^] The RPMI 1640 medium and components were dissolved in water (Milli-Q purified), stirred for at least 3 h, and then sterile filtered (0.22 μm pore size) with a bottle top filter (Corning # 431118). Parasite cultures were maintained in an atmosphere of 3% O2, 4% CO2, and 93% N2 in air-tight chambers at 37 °C. The [^3H]-hypoxanthine incorporation assay was used to test compound activity in the specific parasite lines as described.^[32^] Briefly, compounds were dissolved in DMSO (10 mM) and diluted in a hypoxanthine-free culture medium. A limiting dilution was performed over a 64-fold range (6-step twofold dilution) in a 96-well plate in duplicates. For every starting concentration, a limiting dilution was performed over a 64-fold range (6-step twofold dilution) in a 96-well plate in two biological duplicates. Parasites were added at 100 µL to each well containing the compound to obtain a final parasitemia of 0.3% and haematocrit of 1.25%. The plates were incubated for 48 h before 0.25 µCi of [^3H]-hypoxanthine was added per well for an additional 24 h. Parasites were harvested on a glass-fiber filter with a Microbeta FilterMate cell harvester (Perkin Elmer, Waltham, USA) and radioactivity was counted using a MicroBeta2 liquid scintillation counter (Perkin Elmer, Waltham, US). […] The fifty percent inhibitory concentration (IC50) was calculated by using nonlinear, four parameter (variable slope) curve fitting as described ^[33^] after importing into GraphPad Prism (version 8.3.0).
31 was used for resistance selection studies using the strain Dd2b2 (kindly provided by David Fidock). Resistance selection was done as described in ^[34^]. As summarized in Table S3, an initial inoculum of 2 x 10^9 asexual blood stage parasites (at 2-2.5% parasitemia) were cultured in three independent flasks. […] Cloning via limiting dilution was performed to obtain resistant clones for further characterization as described in section 2.2.5.

3D7^Cas9 pfmdr1 G182S = assay type: cell-based, Plasmodium falciparum; conditions: 3D7^Cas9 pfmdr1 G182S vs 3D7^WT
Description: (§2) ^[a] 72-h [^3H] hypoxanthhine incorporation assay; Data is expressed as mean±s.d.. The assay was performed in three independent biological experiments, each in biological duplicates.
(§3) P. falciparum asexual blood stage parasites were cultured in human red blood cells (RBC, Blutspende SRK, Zurich) at a hematocrit of 5% in RPMI 1640 medium. The RPMI 1640 medium (ThermoFisher Scientific #51800−043) was supplemented with the following: 24 mM NaHCO3 (pH 7.3, Sigma-Aldrich #31437−500G-R), 25 mM Hepes (Sigma-Aldrich #H4034−500G), 0.36 mM hypoxanthine (Sigma-Aldrich # H9377−25G), 100 µg mL^-1 neomycin (Sigma-Aldrich #N6386−100G) and 0.5% Albumax II (Thermo Fisher #11021−045). Additionally, 2 mM choline chloride (279 mg/L, Sigma-Aldrich #C7527−100G) was added to the culture to block the induction of sexual commitment as described. ^[31^] The RPMI 1640 medium and components were dissolved in water (Milli-Q purified), stirred for at least 3 h, and then sterile filtered (0.22 μm pore size) with a bottle top filter (Corning # 431118). Parasite cultures were maintained in an atmosphere of 3% O2, 4% CO2, and 93% N2 in air-tight chambers at 37 °C. The [^3H]-hypoxanthine incorporation assay was used to test compound activity in the specific parasite lines as described.^[32^] Briefly, compounds were dissolved in DMSO (10 mM) and diluted in a hypoxanthine-free culture medium. A limiting dilution was performed over a 64-fold range (6-step twofold dilution) in a 96-well plate in duplicates. For every starting concentration, a limiting dilution was performed over a 64-fold range (6-step twofold dilution) in a 96-well plate in two biological duplicates. Parasites were added at 100 µL to each well containing the compound to obtain a final parasitemia of 0.3% and haematocrit of 1.25%. The plates were incubated for 48 h before 0.25 µCi of [^3H]-hypoxanthine was added per well for an additional 24 h. Parasites were harvested on a glass-fiber filter with a Microbeta FilterMate cell harvester (Perkin Elmer, Waltham, USA) and radioactivity was counted using a MicroBeta2 liquid scintillation counter (Perkin Elmer, Waltham, US). The results were recorded, processed by subtraction of the mean background signal obtained from the uninfected RBC controls and expressed as percentage of untreated controls. The fifty percent inhibitory concentration (IC50) was calculated by using nonlinear, four parameter (variable slope) curve fitting as described ^[33^] after importing into GraphPad Prism (version 8.3.0).
The P. falciparum 3D7 wild type parasites in the ring stage were transfected as described.^[20] Infected RBCs collected from a 5 ml culture of synchronous ring stage parasites (5-6% parasitemia at ) were added to 250 µl of packed RBCs and were co-transfected with 50µg of Cas9 and 50 µg of donor plasmids using a Bio-Rad Gene Pulser Xcell Electroporation System (single exponential pulse, 310 V, 250 µF). 24 hours post-transfection, 5 nM WR99210 (MedChemExpress #HY-116387) was added to the culture medium for six days to select for gene-edited parasites, and henceforth parasites were maintained in normal culture medium until a stably propagating parasite population was obtained. After ~4 weeks post-transfection, stably propagating parasite population were obtained. The transgenic parasite line (3D7^pfmdr1 G182S) was cloned out using an established plaque assays via limiting dilution.^[35^] […]

Dd2b2^pfmdr1 G182S = assay type: cell-based, Plasmodium falciparum; conditions: Dd2b2^pfmdr1 G182S vs Dd2b2^WT
Description: (§4) ^[a] 72-h [^3H] hypoxanthhine incorporation assay; Data is expressed as mean±s.d. The assay was performed in three independent biological experiments, each in biological duplicates
as §1

3D7^WT = assay: [3H]-hypoxanthine incorporation assay; assay type: cell-based; conditions: Plasmodium falciparum, read-out: 3D7^WT IC50
Description: as §2, §3

[1] = test system: P. falciparum NF54 strain; assay: [3H]-hypoxanthine incorporation assay, asexual blood stage; assay type: cell-based, Plasmodium falciparum; conditions: Plasmodium falciparum, NF54, asexual blood stage; mean ± s.d.; read-out: PfNF54 IC50 ± s.d.
Description: as §1

Dd2b2^pfmdr1 K1065N = assay type: cell-based, Plasmodium falciparum; conditions: Dd2b2^pfmdr1 K1065N vs Dd2b2^WT
Description: as §4, §3

HepG2 = assay: Cytotoxicity assay (MTT); assay type: cell-based, human; conditions: Homo sapiens, HepG2; 100 µM, 48 h, MTT
Description: HepG2 (2x10^4 cells per well) were seeded in 96-well flat-bottom culture plates in 100 µL of culture medium (DMEM containing 10% fetal calve serum and 1% penicillin-streptomycin). After 24 hours, the medium was replaced by fresh medium containing test compounds in a final DMSO concentration of 1%. […] Epirubicin and doxorubicin were used as positive controls in serial dilutions starting from 10 µM, and rifampicin was used as a negative control (at 100 µM). Cell viability was determined 48 h after treatment with compounds by adding 0.1 volumes of 3-(4,5-dimethylthiazol-2-yl)-2,5-diphenyltetrazolium bromide (MTT) solution (5 mg/mL sterile PBS) (Sigma, St. Louis, MO) to the wells. After incubating the cells for 30 min at 37 °C (atmosphere containing 5% CO2), medium was removed and MTT crystals were dissolved in 75 µL of a solution containing 10% SDS and 0.5% acetic acid in DMSO. The optical density (OD) of the samples was measured photometrically at 570 nm in a PHERAstar Omega plate reader (BMG labtech, Ortenberg, Germany). Percent viability was calculated by normalizing sample ODs to those of the DMSO controls. Each compound was tested in at least two independent experiments and CC50 values were determined using the nonlinear regression function of GraphPad Prism 10 (GraphPad Software, San Diego, CA, USA).

[2] = Metabolic stability in liver S9 fractions; assay type: in vitro ADME; conditions: pooled mouse liver S9 fraction; 1 μM compound, 1 mg/mL pooled mouse liver S9, 37 °C; read-out: t1/2 Mouse Liver S9
Description: To evaluate phase I and phase II metabolic stability, the compound (1 μM) was incubated at 37 °C for 240 min with 1 mg/mL pooled mouse liver S9 fraction (Xenotech, Kansas City, USA), 2 mM NADPH, 1 mM UDPGA, 10 mM MgCl2, 5 mM GSH and 0.1 mM PAPS. Metabolic stability of reference compounds: testosterone, verapamil and ketoconazole was determined in parallel to confirm the enzymatic activity of mouse S9 fractions. At defined time points, the incubation was stopped by precipitation of aliquots of S9 enzymes with 2 volumes of cold acetonitrile containing internal standard (150 nM diphenhydramine or 15 nM for Altis Plus measurements). Samples were kept on ice until the end of the incubation, after which precipitated protein was removed by centrifugation (15 min, 4 °C, 4,000 g).

| IC50 [1] [nM] | half-life at 1 µM [2] [min] | SMILES | IC50 (Dd2b2^WT) [nM] | IC50 fold shift relative to 3D7^WT strain (3D7^Cas9 pfmdr1 G182S) | IC50 fold shift relative to parental clone (Dd2b2^pfmdr1 G182S) | IC50 (3D7^WT; 3D7, 72-h assay, mean±s.d.) [nM] | IC50 fold shift relative to parental clone (Dd2b2^pfmdr1 K1065N) | IC50 (3D7^WT; 3D7, 72 h) [nM] | inhibition at 100 µM (HepG2) [%] |
| --- | --- | --- | --- | --- | --- | --- | --- | --- | --- |
|  |  | CCN(CC)CCCC(C)Nc1ccnc2cc(Cl)ccc12 (stereo not shown) [Chloroquine, chloroquine, reference compound] | 22.3 ± 1.3 |  |  |  |  | 1.9 ± 0.1 |  |
|  |  | CCCCN(CCCC)CC(O)c1cc(Cl)cc2c1-c1ccc(Cl)cc1/C2=C/c1ccc(Cl)cc1 (stereo not shown) [Lumefantrine, lumefantrine, reference compound] | 1.6 ± 0.8 | 0.8 | 0.4 | 1.6 ± 0.8 | 0.8 |  |  |
|  |  | CCN(CC)Cc1cc(Nc2ccnc3cc(Cl)ccc23)ccc1O [Amodiaquine, amodiaquine, reference compound] | 0.8 ± 0.2 | 1.2 | 1.1 | 0.8 ± 0.2 | 1.2 |  |  |
| 63 ± 7.4 | 49.9 ± 4 | O=C(Nc1cc(CN2CCOCC2)cc(Cl)c1O)c1cccc(Oc2cc(C(F)(F)F)ccn2)c1 [Compound 33, N-(3-Chloro-2-hydroxy-5-(morpholinomethyl)phenyl)-3-((4-(trifluoromethyl)pyridin-2-yl)oxy)benzamide] |  |  |  |  |  |  | 66 ± 2 |
| 21.6 ± 2.65 | 18.4 ± 4.2 | O=C(Nc1cc(CN2CCOCC2)cc(F)c1O)c1cccc(Oc2cc(C(F)(F)F)ccn2)c1 [Compound 32, N-(3-Fluoro-2-hydroxy-5-(morpholinomethyl)phenyl)-3-((4-(trifluoromethyl)pyridin-2-yl)oxy)benzamide] |  |  |  |  |  |  | 51 ± 1 |
| 17 ± 3 | 5.4 ± 0.5 | CC(C)(C)c1ccc(O)c(NC(=O)c2cccc(Oc3cc(C(F)(F)F)ccn3)c2)c1 [Compound 24, N-(5-(tert-Butyl)-2-hydroxyphenyl)-3-((4-(trifluoromethyl)pyridin-2-yl)oxy)benzamide] |  |  |  |  |  |  |  |
|  |  | OC(c1cc(C(F)(F)F)nc2c(C(F)(F)F)cccc12)C1CCCCN1 (stereo not shown) [Mefloquine, mefloquine, reference compound] | 1.1 ± 0.2 | 1.3 | 0.3 | 1.4 ± 0.5 | 0.8 |  |  |

| SMILES | IC50 [1] [nM] | half-life at 1 µM [2] [min] | IC50 (Dd2b2^WT) [nM] | IC50 fold shift relative to 3D7^WT strain (3D7^Cas9 pfmdr1 G182S) | IC50 fold shift relative to parental clone (Dd2b2^pfmdr1 G182S) | IC50 (3D7^WT; 3D7, 72-h assay, mean±s.d.) [nM] | IC50 fold shift relative to parental clone (Dd2b2^pfmdr1 K1065N) | IC50 (3D7^WT; 3D7, 72 h) [nM] | inhibition at 100 µM (HepG2) [%] |
| --- | --- | --- | --- | --- | --- | --- | --- | --- | --- |
| CCN(CC)Cc1ccc(O)c(NC(=O)c2cccc(Oc3cc(C(F)(F)F)ccn3)c2)c1 [Compound 27, N-(5-((diEthylamino)methyl)-2-hydroxyphenyl)-3-((4-(trifluoromethyl)pyridin-2-yl)oxy)benzamide] | 11 ± 3.4 |  | 3.5 ± 0.7 | 1.5 | 10.6 | 2.2 ± 0.2 | 9.4 |  |  |
| O=C(Nc1cc(CN2CCOCC2)ccc1O)c1cccc(Oc2cc(C(F)(F)F)ccn2)c1 [Compound 30, N-(2-Hydroxy-5-(morpholinomethyl)phenyl)-3-((4-(trifluoromethyl)pyridin-2-yl)oxy)benzamide] | 10 ± 1.8 | 28.1 ± 5.5 | 5.2 ± 0.3 |  |  | 2.6 ± 0.5 | 11.8 |  | 45 ± 21 |
